The record followed here is ChEMBL document CHEMBL1800055, “Orally active MMP-1 sparing α-tetrahydropyranyl and α-piperidinyl sulfone matrix metalloproteinase (MMP) inhibitors with efficacy in cancer, arthritis, and cardiovascular disease” (J Med Chem, 2010).

Where only a bound is given, the exact number is not on record here.

Targets include Stromelysin-1 (Homo sapiens, UniProt P08254); Neutrophil collagenase (Homo sapiens, UniProt P22894); Collagenase 3 (Homo sapiens, UniProt P45452).
For the next data set, the target named is T1, Interstitial collagenase (Homo sapiens, UniProt P03956).
T1 sequence (P03956 whole entry): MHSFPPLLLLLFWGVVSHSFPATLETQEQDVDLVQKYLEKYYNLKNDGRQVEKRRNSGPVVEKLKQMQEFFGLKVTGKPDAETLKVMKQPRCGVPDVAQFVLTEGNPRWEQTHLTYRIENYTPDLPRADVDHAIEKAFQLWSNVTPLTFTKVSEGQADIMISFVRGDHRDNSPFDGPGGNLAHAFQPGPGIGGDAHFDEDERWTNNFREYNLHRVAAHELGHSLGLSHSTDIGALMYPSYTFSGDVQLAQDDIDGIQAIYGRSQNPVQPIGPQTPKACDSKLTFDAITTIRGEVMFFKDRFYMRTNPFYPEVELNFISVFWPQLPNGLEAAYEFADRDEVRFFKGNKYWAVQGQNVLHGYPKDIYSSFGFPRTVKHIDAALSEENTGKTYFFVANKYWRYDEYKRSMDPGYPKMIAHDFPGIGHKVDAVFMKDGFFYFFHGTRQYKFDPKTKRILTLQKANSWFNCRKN
Type of data set: cell-based, HT-1080.

The target of data set [1] is 72 kDa type IV collagenase (Homo sapiens, UniProt P08253).
In a further data set the target is T2, Matrilysin (Homo sapiens, UniProt P09237).
T2 sequence (P09237 whole entry): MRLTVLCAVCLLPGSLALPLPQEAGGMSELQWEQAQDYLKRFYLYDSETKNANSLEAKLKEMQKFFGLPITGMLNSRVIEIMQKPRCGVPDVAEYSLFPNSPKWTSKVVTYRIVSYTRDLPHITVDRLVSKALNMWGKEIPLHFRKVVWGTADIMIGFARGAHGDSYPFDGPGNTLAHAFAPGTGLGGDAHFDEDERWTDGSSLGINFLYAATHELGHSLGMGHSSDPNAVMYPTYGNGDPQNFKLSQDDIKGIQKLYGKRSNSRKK

Data set [2] in a line: Cmax in rat at 20 mg/kg, po. Also on record: dose 20 mg/kg, route oral. Particulars: in vivo. In kind it is ADME, organism-based.
In data set [3] the test system is Rattus norvegicus. In words: Plasma concentration in rat at 20 mg/kg, po. In kind it is ADME, organism-based. On the set-up: dose 20 mg/kg, route oral. Particulars: in vivo.
The nature of data set [4]: Half life in rat at 20 mg/kg, po. Particulars: in vivo. On the set-up: dose 20 mg/kg, route oral. In kind it is ADME, organism-based.
Data set [5] can be described thus: Oral bioavailability in rat at 20 mg/kg. Type of data set: ADME, organism-based. Particulars: in vivo.
The subject of the next data set is Cartilage tissue. In words: Ex vivo inhibition of IL-1 and oncostatin M-induced bovine nasal cartilage degradation assessed as release of hydroxproline measured up to 16 days by mass spectrometry. Type of data set: functional, tissue-based. Conditions: Bos taurus, 384 h.
Data set [6] deals with Rattus norvegicus. In words: Cardioprotective activity in rat myocardial infarction model assessed inhibition of left ventricular dilation at 50 mg/kg, po qd for 4 weeks (reference value: 0.69 +/- 0.02 mL). Type of data set: functional, Heart left ventricle.

72 kDa type IV collagenase, sequence (P08253 whole entry): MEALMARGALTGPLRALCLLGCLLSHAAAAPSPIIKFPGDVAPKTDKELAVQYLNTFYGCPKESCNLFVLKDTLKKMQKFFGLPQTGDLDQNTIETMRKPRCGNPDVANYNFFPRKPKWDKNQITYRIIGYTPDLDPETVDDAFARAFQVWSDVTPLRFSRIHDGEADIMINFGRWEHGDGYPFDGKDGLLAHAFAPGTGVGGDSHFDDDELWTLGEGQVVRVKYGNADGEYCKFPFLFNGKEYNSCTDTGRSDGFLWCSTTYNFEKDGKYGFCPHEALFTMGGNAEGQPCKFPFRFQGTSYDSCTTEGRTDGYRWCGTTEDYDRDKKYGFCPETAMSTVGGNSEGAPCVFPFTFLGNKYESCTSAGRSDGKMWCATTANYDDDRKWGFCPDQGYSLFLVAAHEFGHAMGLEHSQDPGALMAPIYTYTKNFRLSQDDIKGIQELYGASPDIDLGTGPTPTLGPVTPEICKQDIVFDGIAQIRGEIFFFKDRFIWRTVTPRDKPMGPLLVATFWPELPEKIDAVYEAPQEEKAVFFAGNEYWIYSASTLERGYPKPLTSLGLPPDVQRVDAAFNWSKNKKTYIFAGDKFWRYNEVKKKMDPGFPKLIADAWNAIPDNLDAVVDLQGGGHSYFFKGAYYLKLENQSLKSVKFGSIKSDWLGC
Neutrophil collagenase, sequence (P22894 whole entry): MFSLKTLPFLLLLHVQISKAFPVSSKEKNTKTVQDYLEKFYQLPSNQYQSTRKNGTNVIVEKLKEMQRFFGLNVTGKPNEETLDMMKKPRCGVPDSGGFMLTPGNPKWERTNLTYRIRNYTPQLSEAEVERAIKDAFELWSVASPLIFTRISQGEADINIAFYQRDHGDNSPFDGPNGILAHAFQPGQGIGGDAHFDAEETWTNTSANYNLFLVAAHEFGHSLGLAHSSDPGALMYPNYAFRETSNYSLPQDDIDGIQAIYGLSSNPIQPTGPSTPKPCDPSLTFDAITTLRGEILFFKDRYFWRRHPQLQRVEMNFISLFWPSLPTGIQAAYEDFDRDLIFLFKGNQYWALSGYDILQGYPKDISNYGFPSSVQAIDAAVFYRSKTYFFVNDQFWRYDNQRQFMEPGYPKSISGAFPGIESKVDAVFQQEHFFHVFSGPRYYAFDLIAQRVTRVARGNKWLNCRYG
Stromelysin-1, sequence (P08254 whole entry): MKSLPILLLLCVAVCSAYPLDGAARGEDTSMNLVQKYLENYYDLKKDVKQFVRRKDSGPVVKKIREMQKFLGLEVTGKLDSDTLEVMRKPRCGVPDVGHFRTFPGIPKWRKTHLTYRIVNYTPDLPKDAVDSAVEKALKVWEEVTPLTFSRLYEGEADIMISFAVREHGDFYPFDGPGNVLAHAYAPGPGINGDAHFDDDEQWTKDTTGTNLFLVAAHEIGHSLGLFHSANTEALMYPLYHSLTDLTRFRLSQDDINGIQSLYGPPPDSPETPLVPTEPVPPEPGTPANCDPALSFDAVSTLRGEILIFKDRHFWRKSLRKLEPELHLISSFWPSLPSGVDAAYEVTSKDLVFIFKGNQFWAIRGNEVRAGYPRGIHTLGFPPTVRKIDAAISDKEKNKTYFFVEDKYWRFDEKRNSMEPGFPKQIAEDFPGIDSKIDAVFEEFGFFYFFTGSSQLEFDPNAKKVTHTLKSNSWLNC

`COCCN1CCC(C(=O)NO)(S(=O)(=O)c2ccc(Oc3ccc(SC(F)(F)F)cc3)cc2)CC1`: the IC50 against Interstitial collagenase is more than 10000 nM; in data set [1], 0.2 nM; at Stromelysin-1 it was 23.9 nM; against Matrilysin it was 9000 nM; on Neutrophil collagenase, 1.9 nM; on Collagenase 3, 0.2 nM. This compound registered a Cmax in data set [2] of 32900 ng/mL. In the data set on Rattus norvegicus [3], the Cp turned out to be 14078 ng/mL. The compound also gave a half-life in data set [4] of 2.99 h. Besides, the bioavailability in [5] is 34.1%.

As to `O=C(NO)C1(CS(=O)(=O)c2ccc(Oc3ccc(Cl)cc3)cc2)CCOCC1` [CTS-1027], the IC50 with Cartilage tissue was found to be 30 nM.

As for `C#CCN1CCC(C(=O)NO)(S(=O)(=O)c2ccc(Oc3ccc(S(C)(=O)=O)cc3)cc2)CC1`, the half-maximal inhibitory concentration (IC50) on Interstitial collagenase was more than 10000 nM; in [1], 3.3 nM; against Collagenase 3, 2.9 nM. The compound further displayed an Activity with Rattus norvegicus [6] of 0.63 mL.

Take `O=C(NO)C1(S(=O)(=O)c2ccc(Oc3ccc(OC(F)(F)F)cc3)cc2)CCN(Cc2cccnc2)CC1`: the IC50 against Interstitial collagenase was 4600 nM; in data set [1] it was less than 0.1 nM; against Stromelysin-1, 42.5 nM; on Matrilysin it was more than 10000 nM; on Neutrophil collagenase, 1.5 nM; against Collagenase 3 it was 0.2 nM. Also, the highest level in [2] (Cmax) was 52600 ng/mL. Moreover, in the data set on Rattus norvegicus [3], the Cp worked out at 1900 ng/mL. In data set [4], this compound had a half-life of 1.05 h. Moreover, the bioavailability in data set [5] was 49.8%.
